# Experiments:
# [1] = test system: mouse; conditions: Subchronic inhalation toxicity, b6c3f1, Whole-Body, dose end: 13 week, group: systemic, systemic / organ weight / kidney / absolute + systemic / organ weight / kidney / relative to body weight + systemic / organ weight / liver…
# [2] = test system: rat; conditions: Prenatal developmental toxicity study, sprague dawley, Inhalation, Whole-Body, dose end: 15 GD
# [3] = test system: rat; conditions: Prenatal developmental toxicity study, sprague dawley, Dermal, Topical, dose end: 15 GD
# [4] = group: developmental, systemic / in life observation / body weight / fetal weight
# [5] = group: maternal, systemic / in life observation / body weight / body weight gain
# [6] = group: developmental, developmental / developmental malformation / general / [other] + developmental / developmental malformation / general / crown-rump length
# [7] = group: maternal, systemic / organ weight / placenta / absolute
# [8] = group: maternal, systemic / organ weight / placenta / absolute + systemic / in life observation / body weight / body weight gain + systemic / in life …
compound,measurement,setting,value
"CN(C)C=O [N,N-Dimethylformamide]",LEL,[1],50 ppm
same,LOAEL,[1],> 800 ppm
same,NEL,[1],< 50 ppm
same,NOAEL,[1],≥ 800 ppm
same,LEL,[2]; [4],300 ppm
same,LOAEL,[2]; [4],> 300 ppm
same,NEL,[2]; [4],30 ppm
same,NOAEL,[2]; [4],≥ 300 ppm
same,LEL,[2]; [5],300 ppm
same,LOAEL,[2]; [5],> 300 ppm
same,NEL,[2]; [5],30 ppm
same,NOAEL,[2]; [5],≥ 300 ppm
same,LEL,[3]; [6],944 mg/kg/day
same,LOAEL,[3]; [6],> 944 mg/kg/day
same,NEL,[3]; [6],472 mg/kg/day
same,NOAEL,[3]; [6],≥ 944 mg/kg/day
same,LEL,[3]; [7],94 mg/kg/day
same,NEL,[3]; [7],< 94 mg/kg/day
same,LOAEL,[3]; [8],> 944 mg/kg/day
same,NOAEL,[3]; [8],≥ 944 mg/kg/day

# — EPA's ToxRefDB 2
